Test [1] has as its target cAMP-dependent protein kinase catalytic subunit alpha (Homo sapiens, UniProt P17612).
For a further test, the target named is T1, Rab-like protein 3 (Homo sapiens, UniProt Q5HYI8).
T1 sequence (Q5HYI8 whole entry): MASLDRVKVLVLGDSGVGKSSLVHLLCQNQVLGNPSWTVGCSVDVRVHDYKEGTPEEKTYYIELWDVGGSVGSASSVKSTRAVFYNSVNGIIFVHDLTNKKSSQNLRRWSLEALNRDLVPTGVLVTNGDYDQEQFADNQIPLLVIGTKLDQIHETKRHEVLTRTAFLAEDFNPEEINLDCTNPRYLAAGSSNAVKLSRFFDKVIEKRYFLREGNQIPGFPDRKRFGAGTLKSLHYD

Test [2] addresses T2, Dynamin-like GTPase OPA1, mitochondrial (Homo sapiens, UniProt O60313).
T2 sequence (O60313 whole entry): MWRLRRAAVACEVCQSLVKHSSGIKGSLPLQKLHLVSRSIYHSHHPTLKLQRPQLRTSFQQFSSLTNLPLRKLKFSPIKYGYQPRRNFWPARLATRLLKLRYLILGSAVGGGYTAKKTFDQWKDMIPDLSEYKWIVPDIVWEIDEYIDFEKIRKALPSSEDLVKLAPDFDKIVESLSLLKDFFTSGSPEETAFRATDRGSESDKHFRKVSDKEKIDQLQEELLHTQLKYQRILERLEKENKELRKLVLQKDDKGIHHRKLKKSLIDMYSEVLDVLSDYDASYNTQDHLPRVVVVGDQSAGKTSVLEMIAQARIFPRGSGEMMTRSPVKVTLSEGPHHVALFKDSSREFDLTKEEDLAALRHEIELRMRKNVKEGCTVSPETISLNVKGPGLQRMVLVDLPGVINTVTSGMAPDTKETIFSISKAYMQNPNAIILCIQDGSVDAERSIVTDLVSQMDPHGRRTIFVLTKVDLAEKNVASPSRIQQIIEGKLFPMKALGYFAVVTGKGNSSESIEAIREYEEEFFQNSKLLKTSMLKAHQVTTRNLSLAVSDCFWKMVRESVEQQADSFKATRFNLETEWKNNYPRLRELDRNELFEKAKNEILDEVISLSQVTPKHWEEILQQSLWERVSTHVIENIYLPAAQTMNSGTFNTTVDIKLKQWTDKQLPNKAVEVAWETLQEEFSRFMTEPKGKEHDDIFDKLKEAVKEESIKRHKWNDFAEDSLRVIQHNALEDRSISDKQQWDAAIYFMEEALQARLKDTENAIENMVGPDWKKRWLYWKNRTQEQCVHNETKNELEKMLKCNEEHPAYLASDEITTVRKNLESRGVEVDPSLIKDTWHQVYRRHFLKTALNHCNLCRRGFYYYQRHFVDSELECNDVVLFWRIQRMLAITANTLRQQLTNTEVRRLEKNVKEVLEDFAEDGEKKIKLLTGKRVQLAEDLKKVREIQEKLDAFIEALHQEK

Test [3] has as its target U5 small nuclear ribonucleoprotein 200 kDa helicase (Homo sapiens, UniProt O75643).
The next test deals with Activin receptor type-2B (Homo sapiens, UniProt Q13705).
Sequence of Activin receptor type-2B (Q13705 whole entry): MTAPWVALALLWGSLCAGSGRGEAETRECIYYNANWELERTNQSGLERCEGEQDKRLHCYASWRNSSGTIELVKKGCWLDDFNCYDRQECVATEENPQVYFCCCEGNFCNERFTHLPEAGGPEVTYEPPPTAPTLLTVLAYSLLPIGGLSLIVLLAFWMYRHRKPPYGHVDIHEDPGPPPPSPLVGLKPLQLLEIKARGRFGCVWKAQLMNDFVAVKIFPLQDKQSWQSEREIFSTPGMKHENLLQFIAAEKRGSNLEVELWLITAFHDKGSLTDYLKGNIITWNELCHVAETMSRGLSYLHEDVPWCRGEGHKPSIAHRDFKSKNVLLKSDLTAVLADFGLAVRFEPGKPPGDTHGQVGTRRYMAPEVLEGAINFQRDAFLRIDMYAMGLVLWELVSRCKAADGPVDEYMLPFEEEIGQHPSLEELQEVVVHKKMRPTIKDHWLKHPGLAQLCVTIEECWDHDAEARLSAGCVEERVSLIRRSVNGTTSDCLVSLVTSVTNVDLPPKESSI
For test [4], the target named is T3, Dual specificity mitogen-activated protein kinase kinase 5 (Homo sapiens, UniProt Q13163).
T3 sequence (Q13163 whole entry): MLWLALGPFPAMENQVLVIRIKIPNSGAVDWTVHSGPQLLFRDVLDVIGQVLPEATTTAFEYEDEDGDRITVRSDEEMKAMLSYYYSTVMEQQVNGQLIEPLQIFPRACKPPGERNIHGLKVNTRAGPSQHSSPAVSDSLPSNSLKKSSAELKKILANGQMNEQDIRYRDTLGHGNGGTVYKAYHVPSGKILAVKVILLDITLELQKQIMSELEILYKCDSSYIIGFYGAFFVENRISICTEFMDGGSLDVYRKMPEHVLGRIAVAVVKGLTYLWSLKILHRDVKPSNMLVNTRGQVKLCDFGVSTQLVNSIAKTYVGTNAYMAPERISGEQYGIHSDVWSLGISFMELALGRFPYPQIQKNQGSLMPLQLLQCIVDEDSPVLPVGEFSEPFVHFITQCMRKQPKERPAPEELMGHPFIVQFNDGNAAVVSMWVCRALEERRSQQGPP

The target of test [5] is T4, Mitogen-activated protein kinase kinase kinase kinase 2 (Homo sapiens, UniProt Q12851).
T4 sequence (Q12851 whole entry): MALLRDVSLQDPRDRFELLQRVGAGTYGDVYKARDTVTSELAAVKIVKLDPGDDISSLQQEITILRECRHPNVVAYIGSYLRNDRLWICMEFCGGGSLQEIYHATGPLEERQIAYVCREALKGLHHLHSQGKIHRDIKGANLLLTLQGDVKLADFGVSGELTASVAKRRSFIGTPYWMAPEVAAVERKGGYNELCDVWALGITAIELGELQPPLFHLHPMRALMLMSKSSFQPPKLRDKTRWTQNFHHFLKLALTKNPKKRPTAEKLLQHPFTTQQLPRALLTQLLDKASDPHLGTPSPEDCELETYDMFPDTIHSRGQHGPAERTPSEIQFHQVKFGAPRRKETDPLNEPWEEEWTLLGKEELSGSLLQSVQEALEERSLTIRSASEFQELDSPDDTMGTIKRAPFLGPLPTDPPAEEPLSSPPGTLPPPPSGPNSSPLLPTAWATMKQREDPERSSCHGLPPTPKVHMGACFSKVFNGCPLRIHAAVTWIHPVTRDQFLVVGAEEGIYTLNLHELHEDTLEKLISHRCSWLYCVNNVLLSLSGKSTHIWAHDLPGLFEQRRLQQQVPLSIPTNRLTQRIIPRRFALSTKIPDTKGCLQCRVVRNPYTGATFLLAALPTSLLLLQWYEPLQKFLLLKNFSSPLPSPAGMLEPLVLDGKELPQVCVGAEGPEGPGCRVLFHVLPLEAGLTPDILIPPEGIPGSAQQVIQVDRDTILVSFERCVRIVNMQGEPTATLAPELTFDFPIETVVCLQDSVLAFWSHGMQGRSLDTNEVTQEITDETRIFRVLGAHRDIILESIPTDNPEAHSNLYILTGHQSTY

Test [6] addresses Mitogen-activated protein kinase 1 (Homo sapiens, UniProt P28482).
The target in test [7] is Ribosomal protein S6 kinase beta-1 (Homo sapiens, UniProt P23443).
Sequence of Ribosomal protein S6 kinase beta-1 (P23443 whole entry): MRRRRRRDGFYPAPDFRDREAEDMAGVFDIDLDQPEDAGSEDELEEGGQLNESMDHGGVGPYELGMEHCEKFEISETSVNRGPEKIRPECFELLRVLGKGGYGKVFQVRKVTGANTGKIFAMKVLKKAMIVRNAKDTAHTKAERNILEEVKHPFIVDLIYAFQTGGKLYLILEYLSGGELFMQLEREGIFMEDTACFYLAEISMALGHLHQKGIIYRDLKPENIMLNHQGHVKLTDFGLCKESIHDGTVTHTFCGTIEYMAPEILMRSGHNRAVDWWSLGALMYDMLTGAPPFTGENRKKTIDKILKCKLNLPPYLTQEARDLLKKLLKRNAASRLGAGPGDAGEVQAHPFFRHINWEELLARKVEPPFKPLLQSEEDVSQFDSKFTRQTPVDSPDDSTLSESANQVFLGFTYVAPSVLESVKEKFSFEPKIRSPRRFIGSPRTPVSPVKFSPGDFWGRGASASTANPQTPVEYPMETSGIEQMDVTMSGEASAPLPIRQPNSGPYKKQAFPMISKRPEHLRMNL
In test [8] the target is Eukaryotic translation initiation factor 2-alpha kinase 1 (Homo sapiens, UniProt Q9BQI3).
Sequence of Eukaryotic translation initiation factor 2-alpha kinase 1 (Q9BQI3 whole entry): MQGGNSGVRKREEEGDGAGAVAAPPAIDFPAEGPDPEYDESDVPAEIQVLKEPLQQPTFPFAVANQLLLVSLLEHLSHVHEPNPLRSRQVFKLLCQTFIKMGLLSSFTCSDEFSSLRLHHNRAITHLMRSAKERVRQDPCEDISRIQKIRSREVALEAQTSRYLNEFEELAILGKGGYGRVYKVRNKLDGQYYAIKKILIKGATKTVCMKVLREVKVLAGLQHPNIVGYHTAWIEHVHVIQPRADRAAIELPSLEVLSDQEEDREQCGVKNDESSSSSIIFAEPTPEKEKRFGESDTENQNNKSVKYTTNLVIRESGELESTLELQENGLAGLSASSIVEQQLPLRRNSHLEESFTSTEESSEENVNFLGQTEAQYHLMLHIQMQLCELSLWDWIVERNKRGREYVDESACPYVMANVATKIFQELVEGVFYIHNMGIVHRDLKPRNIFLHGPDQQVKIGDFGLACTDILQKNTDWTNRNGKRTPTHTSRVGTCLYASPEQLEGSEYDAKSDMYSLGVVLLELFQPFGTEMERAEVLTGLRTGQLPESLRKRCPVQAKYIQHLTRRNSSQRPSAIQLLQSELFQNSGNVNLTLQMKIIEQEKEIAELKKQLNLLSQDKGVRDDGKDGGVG

Calls of active or inactive are those of the source. A value given as a limit tells only on which side of the number the result lay.
Further: in the data inactive means no Kd found up to 30 µM.

Sequence of U5 small nuclear ribonucleoprotein 200 kDa helicase (O75643 whole entry): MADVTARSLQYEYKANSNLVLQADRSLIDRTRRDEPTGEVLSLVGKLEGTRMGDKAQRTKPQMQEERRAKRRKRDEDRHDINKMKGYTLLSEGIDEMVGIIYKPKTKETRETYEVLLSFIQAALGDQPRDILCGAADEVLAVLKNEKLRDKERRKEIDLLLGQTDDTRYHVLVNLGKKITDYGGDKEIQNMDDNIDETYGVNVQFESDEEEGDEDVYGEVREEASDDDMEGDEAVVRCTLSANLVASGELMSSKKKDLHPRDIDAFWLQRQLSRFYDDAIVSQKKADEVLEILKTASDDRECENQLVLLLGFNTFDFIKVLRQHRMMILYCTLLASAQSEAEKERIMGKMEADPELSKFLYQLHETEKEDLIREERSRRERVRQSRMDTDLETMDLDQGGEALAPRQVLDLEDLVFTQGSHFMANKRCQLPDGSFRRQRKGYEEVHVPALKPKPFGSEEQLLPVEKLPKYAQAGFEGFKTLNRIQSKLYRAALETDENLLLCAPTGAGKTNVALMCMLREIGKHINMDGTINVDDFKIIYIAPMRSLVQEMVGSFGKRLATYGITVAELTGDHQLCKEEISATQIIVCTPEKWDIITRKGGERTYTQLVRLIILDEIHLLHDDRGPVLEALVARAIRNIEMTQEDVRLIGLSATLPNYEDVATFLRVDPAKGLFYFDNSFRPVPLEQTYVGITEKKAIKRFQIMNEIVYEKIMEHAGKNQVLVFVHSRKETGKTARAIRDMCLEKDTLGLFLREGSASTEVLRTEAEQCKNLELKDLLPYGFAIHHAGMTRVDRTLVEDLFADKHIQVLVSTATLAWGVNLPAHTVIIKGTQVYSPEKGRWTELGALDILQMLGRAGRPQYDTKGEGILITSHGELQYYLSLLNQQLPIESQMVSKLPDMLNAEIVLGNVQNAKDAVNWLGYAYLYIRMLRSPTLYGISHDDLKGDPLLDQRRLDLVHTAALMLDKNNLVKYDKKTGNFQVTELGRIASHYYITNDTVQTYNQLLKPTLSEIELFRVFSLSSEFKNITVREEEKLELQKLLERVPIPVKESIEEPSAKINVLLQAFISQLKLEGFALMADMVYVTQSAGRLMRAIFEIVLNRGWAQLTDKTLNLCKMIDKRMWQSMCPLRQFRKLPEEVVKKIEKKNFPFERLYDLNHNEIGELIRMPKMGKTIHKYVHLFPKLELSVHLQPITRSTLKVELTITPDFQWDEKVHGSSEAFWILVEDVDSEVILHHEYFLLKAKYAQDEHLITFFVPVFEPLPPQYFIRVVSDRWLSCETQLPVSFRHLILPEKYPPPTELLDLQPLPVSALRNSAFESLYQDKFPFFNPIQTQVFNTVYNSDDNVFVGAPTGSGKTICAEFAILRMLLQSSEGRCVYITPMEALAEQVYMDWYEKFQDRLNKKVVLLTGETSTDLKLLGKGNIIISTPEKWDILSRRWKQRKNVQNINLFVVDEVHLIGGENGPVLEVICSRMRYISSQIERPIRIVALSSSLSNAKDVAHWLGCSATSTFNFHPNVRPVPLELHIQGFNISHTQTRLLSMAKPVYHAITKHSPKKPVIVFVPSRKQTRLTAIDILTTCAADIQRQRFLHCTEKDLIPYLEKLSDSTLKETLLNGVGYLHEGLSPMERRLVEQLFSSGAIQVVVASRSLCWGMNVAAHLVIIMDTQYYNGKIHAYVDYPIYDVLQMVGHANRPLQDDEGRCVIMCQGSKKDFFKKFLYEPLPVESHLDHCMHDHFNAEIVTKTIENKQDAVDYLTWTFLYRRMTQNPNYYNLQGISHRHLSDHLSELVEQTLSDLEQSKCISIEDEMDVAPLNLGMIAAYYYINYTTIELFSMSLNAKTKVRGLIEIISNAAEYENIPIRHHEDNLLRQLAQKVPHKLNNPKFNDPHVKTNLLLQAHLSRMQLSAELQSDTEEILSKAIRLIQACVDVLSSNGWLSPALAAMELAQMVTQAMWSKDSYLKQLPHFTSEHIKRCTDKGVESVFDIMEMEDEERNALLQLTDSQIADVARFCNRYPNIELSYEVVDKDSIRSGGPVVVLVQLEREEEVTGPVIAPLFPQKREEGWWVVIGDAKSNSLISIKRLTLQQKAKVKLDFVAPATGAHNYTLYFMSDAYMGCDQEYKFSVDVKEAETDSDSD
Sequence of Mitogen-activated protein kinase 1 (P28482 whole entry): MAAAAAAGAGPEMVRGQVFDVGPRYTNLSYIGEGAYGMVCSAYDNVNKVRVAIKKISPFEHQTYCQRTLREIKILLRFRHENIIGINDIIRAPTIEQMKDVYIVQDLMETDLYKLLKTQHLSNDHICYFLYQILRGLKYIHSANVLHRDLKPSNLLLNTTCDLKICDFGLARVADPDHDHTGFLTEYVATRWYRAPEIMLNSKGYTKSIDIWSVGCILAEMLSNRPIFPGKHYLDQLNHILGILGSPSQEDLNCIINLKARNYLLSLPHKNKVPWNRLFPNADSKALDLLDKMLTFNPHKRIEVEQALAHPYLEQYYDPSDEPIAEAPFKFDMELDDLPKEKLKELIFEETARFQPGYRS

The term Kd denotes the concentration at which binding is half-saturated. Consider `C[C@@H](Nc1cc(F)cc(F)c1)c1cc(C(=O)N(C)C)cc2c(=O)cc(N3CCOCC3)oc12` [AZD-8186], for which the Kd (in test [1]; on Rab-like protein 3; in test [2]; in test [3]; on Activin receptor type-2B; in [4]) was > 30 µM (inactive) each time. Moreover, the Kd in test [5], in test [6], in test [7] and in test [8] was > 30 µM (inactive) each time.
As for `COc1cc(OC)c(/C=C/S(=O)(=O)Cc2ccc(OC)c(NCC(=O)O)c2)c(OC)c1` [RIGOSERTIB], the Kd (in [1]; at Rab-like protein 3; in test [2]; in test [3]; on Activin receptor type-2B; in [4]) was > 30 µM (inactive) in each case. Also, the Kd in [5], in test [6], in [7] and in test [8] was > 30 µM (inactive) in each case.
With `CC[C@H](Nc1ncnc2[nH]cnc12)c1nc2cccc(F)c2c(=O)n1-c1ccccc1` [IDELALISIB], the Kd (in test [1]; on Rab-like protein 3; in test [2]; at Activin receptor type-2B; in [4]; in test [5]) was > 30 µM (inactive) each time. The Kd in test [6], in [7] and in test [8] was > 30 µM (inactive) throughout.
Regarding `CNC(=O)CN1CCC(Oc2cc3c(Nc4cccc(Cl)c4F)ncnc3cc2OC)CC1` [SAPITINIB], the Kd (in test [1]; at Rab-like protein 3; in test [2]; in test [3]; at Activin receptor type-2B; in [4]) was > 30 µM (inactive) throughout. The Kd in test [5], in test [6], in test [7] and in test [8] was > 30 µM (inactive) in each case.
As to `Cc1ccc(S(=O)(=O)Nc2nc3ccccc3nc2Nc2ccc3nsnc3c2)cc1`, the Kd (in [1]; on Rab-like protein 3; in test [2]; in test [3]; in test [4]; in test [5]) was > 30 µM (inactive) in each case. The Kd in test [6], in test [7] and in [8] was > 30 µM (inactive) in each case.
Consider `CCS(=O)(=O)N1CC(CC#N)(n2cc(-c3ncnc4[nH]ccc34)cn2)C1` [BARICITINIB], for which the Kd in [1] is 3.6 µM (active); on Rab-like protein 3, > 30 µM (inactive); in test [2], > 30 µM (inactive); in test [3], > 30 µM (inactive); on Activin receptor type-2B, > 30 µM (inactive); in test [4], > 30 µM (inactive). Besides, the Kd was > 30 µM (inactive) in [5], > 30 µM (inactive) in [6], > 30 µM (inactive) in test [7] and 0.335 µM (active) in test [8].
On to `Cn1ncc(Cl)c1-c1cc(C(=O)N[C@H](CN)Cc2cccc(F)c2)sc1Cl` [AFURESERTIB], for which the Kd in test [1] is 0.133 µM (active); at Rab-like protein 3, > 30 µM (inactive); in test [2] it was > 30 µM (inactive); on Activin receptor type-2B, > 30 µM (inactive); in test [4] it was > 30 µM (inactive); in test [5], > 30 µM (inactive). Further, the Kd in test [6], in test [7] and in test [8] was > 30 µM (inactive) in each case.
For `CN1CCC(COc2cnc(-c3cccc(Cn4nc(-c5cccc(C#N)c5)ccc4=O)c3)nc2)CC1` [TEPOTINIB], the Kd (in test [1]; in [2]; in [3]; on Activin receptor type-2B; in [4]; in test [5]) was > 30 µM (inactive) in each case. Moreover, the Kd in [6], in [7] and in test [8] was > 30 µM (inactive) in each case.
As for `CCn1c(=O)c(-c2cc[nH]n2)cc2c(C)nc(N)nc21` [VOXTALISIB], the Kd (in test [1]; in test [2]; in test [3]; on Activin receptor type-2B; in test [4]; in test [5]) was > 30 µM (inactive) throughout. For the same compound, the Kd in test [6], in test [7] and in [8] was > 30 µM (inactive) each time.
With `Cc1c(F)cc(C(=O)NC2CC2)cc1-c1ccc(C(=O)NCC(C)(C)C)cn1` [LOSMAPIMOD], the Kd (in [1]; at Rab-like protein 3; in test [2]; on Activin receptor type-2B; in test [4]; in test [5]) was > 30 µM (inactive) in each case. Further, the Kd in [6], in test [7] and in [8] was > 30 µM (inactive) each time.
Regarding `CO[C@H]1C[C@@H]2CC[C@@H](C)[C@@](O)(O2)C(=O)C(=O)N2CCCC[C@H]2C(=O)O[C@H]([C@H](C)C[C@@H]2CC[C@@H](OCCO)[C@H](OC)C2)CC(=O)[C@H](C)/C=C(\C)[C@@H](O)[C@@H](OC)C(=O)[C@H](C)C[C@H](C)/C=C/C=C/C=C/1C` [EVEROLIMUS], the Kd (in test [1]; in test [2]; in [3]; on Activin receptor type-2B; in [4]; in [5]) was > 30 µM (inactive) each time. Also, the Kd in test [6], in test [7] and in test [8] was > 30 µM (inactive) each time.

The values above are taken from ChEMBL document CHEMBL3991601, “The target landscape of clinical kinase drugs” (Science, 2017).
